From patent publication US20260365671A1, “HETEROCYCLIC COMPOUND” (Takeda Pharmaceutical Company Limited, priority 2022, published 2026)

How the values were obtained:
NF-κB pathway = assay: TNF-α assay (THP-1 cells differentiated to macrophages with IFN-γ, NF-κB pathway activated with LPS; ELISA); assay type: cell-based, Human; conditions: compound 30 min, 50 ng/mL LPS 3 hours
Experimental: (§1) The biological activity of Compound (I) with respect to NLRP3 was determined using the following in vitro methods.
TNF-α Assay (Reported as IC50)
Monocytic THP-1 cells (ATCC: TIB-202) were maintained in accordance with the provider's instructions in RPMI media (Life Technologies, Cat #A10491-01); RPMI was supplemented with 10% heat inactivated fetal bovine serum (Hyclone Cat #SH30396.03). The cells were differentiated into macrophages by the addition of 25 ng/mL IFN-γ for 24 hours at 37 °C/5% CO2. Media was exchanged with fresh media with no FBS. The cells were plated at 40,000 cells per well in 384-well flat-bottom cell culture plates (Costar 3764) containing compounds (added in 1:1000) in a 1:3.16 serial dilution series in DMSO and were incubated for 30 minutes at 37 °C/5% CO2. The NF-κB pathway was activated with the addition of 50 ng/mL LPS and the cells were incubated for 3 hours at 37 °C/5% CO2. At the end of the incubation period, supernatant ([…]) was removed, and […] were monitored using an ELISA (Human TNF-α ELISA, R&D systems, Cat #DY210) according to the manufacturer's instructions.
(§2) The IC50 values were calculated from a plot of percentage of inhibition versus the inhibitor concentration by a logistics curve fit according to: Y=[Bottom+(Top−Bottom)]/(1+10^[(Log IC50−X)·Hill Slope], where Y is the % inhibition at the inhibitor concentration, X, “Bottom” is the lowest inhibition value, i.e., 0%, “Top” is the maximum inhibition value, i.e., 100%, and the “Hill Slope” describes the slope of the sigmoidal curve between the “Bottom” and “Top” values. The curve fitting was conducted with XLfit (ver. 5.5.0.5, ID Business Solutions Limited) or internally developed software.
(§3) Table 2 lists in vitro biological assay data (IL-1β and TNF-α) for the compounds shown in the examples. These assays are described in the section entitled Biological Activity, above.

NLRP3 inflammasome = molecular target: T1, NLRP3 inflammasome (Homo sapiens, UniProt Q96P20); assay: IL-1β TR-FRET assay (THP-1 cells differentiated to macrophages with IFN-γ, LPS primed, ATP activated; HTRF); assay type: cell-based; conditions: THP-1 macrophages, 50 ng/mL LPS priming, compound 30 min, 20 mM ATP 2 hours
T1 construct: IL-1beta HTRF
T1 sequence (Q96P20 whole entry): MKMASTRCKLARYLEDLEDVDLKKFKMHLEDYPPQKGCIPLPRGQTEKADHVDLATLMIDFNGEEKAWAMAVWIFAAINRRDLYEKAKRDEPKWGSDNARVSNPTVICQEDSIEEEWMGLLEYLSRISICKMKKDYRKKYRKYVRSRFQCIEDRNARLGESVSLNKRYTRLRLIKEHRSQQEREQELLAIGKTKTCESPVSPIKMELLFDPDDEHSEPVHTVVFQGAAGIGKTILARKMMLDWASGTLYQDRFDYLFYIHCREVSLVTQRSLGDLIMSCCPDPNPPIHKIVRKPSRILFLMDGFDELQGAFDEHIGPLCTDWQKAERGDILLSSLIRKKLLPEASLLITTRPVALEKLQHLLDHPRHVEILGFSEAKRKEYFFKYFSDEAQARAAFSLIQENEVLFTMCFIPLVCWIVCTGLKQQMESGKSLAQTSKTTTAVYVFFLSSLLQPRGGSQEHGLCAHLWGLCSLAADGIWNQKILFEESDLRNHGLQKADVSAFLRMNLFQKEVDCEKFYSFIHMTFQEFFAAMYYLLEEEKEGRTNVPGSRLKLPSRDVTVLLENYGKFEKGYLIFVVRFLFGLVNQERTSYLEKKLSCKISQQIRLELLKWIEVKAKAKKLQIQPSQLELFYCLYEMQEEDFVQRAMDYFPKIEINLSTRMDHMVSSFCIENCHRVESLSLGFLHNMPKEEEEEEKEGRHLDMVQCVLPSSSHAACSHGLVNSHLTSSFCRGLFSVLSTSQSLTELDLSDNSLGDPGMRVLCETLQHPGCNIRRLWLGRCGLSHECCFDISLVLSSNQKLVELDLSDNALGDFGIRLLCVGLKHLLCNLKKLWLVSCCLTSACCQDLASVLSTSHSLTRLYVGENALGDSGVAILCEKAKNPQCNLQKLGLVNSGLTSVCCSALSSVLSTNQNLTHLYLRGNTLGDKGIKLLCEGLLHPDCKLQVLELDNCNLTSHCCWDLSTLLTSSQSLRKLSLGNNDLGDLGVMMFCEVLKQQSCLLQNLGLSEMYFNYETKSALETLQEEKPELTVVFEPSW
Experimental: as §1
IL-1β TR-FRET Assay (Reported as IC50)
Monocytic THP-1 cells (ATCC: TIB-202) were maintained in accordance with the provider's instructions in RPMI media (Life Technologies, Cat #A10491-01); RPMI was supplemented with 10% heat inactivated fetal bovine serum (Corning, Cat #35-010-CV). The cells were differentiated into macrophages by the addition of 25 ng/mL IFN-γ (PeproTech, Cat #AF300-02-100UG) for 24 hours at 37 °C/5% CO2. Media was exchanged with fresh media with no FBS, and the cells were treated with 50 ng/mL LPS (priming step) (LPS-EK: Invivogen, Cat #tlrl-peklps). The cells were plated at 240,000 cells per well in 384-well flat-bottom cell culture plates (FALCON, Cat #353962) and were incubated for 24 hours at 37 °C/5% CO2. Compounds were serially diluted (half log dilutions) with DMSO and were finally diluted with Media with no FBS. The compounds were added to the cells in 384-well plates (added in 1:3) and then the plates were incubated for 30 minutes at 37 °C/5% CO2. The NLRP3 inflammasome was activated with the addition of 20 mM ATP (Sigma Cat #A3377-25G) and the cells were incubated for 2 hours at 37 °C/5% CO2. At the end of the incubation period, 30 μL supernatant was transferred to another 384-well plate and mixed on a plate shaker for 1 minutes. The supernatant was mixed with HTRF Antibody (Human IL1 beta kit, Cisbio, 62HIL1BPEH) in assay plates (Greiner Bio-One, Cat #784075) and the assay plates were incubated in shading box at room temperature for 16-24 hours. HTRF signal was measured by EnVision (Perkinelmer) in accordance with the manufacturer's instructions.
as §2, §3

[1] = Homo sapiens, THP-1, THP-1 macrophages

SMILES | IC50 (NF-κB pathway; [1]) | IC50 (NLRP3 inflammasome) | IC50 (NF-κB pathway; THP-1 macrophages)
Cc1cc(C)c(-n2cc3sc(N[C@@H]4CC[C@H](O)C4)nc3n2)c(O)c1 [Example 46, 2-(5-{[(1R,3S)-3-hydroxycyclopentyl]amino}-2H-pyrazolo[3,4-d][1,3]thiazol-2-yl)-3,5-dimethylphenol or 2-(5-{[(1S,3R)-3-hydroxycyclopentyl]amino}-2H-pyrazolo[3,4-d][1,3]thiazol-2-yl)-3,5-dimethylphenyl (tR1)] | > 10000 nM | 330 nM | 
Cc1cc(C)c(-n2cc3sc(N[C@H]4CN(C(=O)C5(O)CC5)C[C@@H]4F)nc3n2)c(O)c1 (racemic) [Example 124, racemic mixture of [(3R,4R)-3-fluoro-4-{[2-(2-hydroxy-4,6-dimethylphenyl)-2H-pyrazolo[3,4-d][1,3]thiazol-5-yl]amino}pyrrolidin-1-yl](1-hydroxycyclopropyl) methanone and [(3S,4S)-3-fluoro-4-{[2-(2-hydroxy-4,6-dimethylphenyl)-2H-pyrazolo[3,4-d][1,3]thiazol-5-yl]amino}pyrrolidin-1-yl](1-hydroxycyclopropyl)methanone] | > 30000 nM | 340 nM | 
Cc1cc(C)c(-n2nc3nc(N[C@@H]4C[C@@H](F)CN(C)C4)sc3c2C)c(O)c1 [Example 70, 2-(5-{[(3R,5R)-5-fluoro-1-methylpiperidin-3-yl]amino}-3-methyl-2H-pyrazolo[3,4-d][1,3]thiazol-2-yl)-3,5-dimethylphenol] | > 30000 nM | 59 nM | 
COCCN(C)c1nc2nn(-c3c(C)cc(C)cc3O)cc2s1 [Example 61, 2-{5-[(2-methoxyethyl)(methyl)amino]-2H-pyrazolo[3,4-d][1,3]thiazol-2-yl}-3,5-dimethylphenol] | > 10000 nM | 2000 nM | 
Cc1cc(C)c(-n2cc3sc(N[C@@H]4COCC[C@H]4O)nc3n2)c(O)c1 [Example 165, 1,5-anhydro-2,4-dideoxy-2-{[2-(2-hydroxy-4,6-dimethylphenyl)-2H-pyrazolo[3,4-d][1,3]thiazol-5-yl]amino}-D-threo-pentitol] | > 30000 nM | 1800 nM | 
Cc1cc(Cl)cc(O)c1-n1cc2c(nc(N[C@@H]3C[C@@H](F)CN(C)C3)n2C)n1 [Example 82, 5-chloro-2-[5-{[(3R,5R)-5-fluoro-1-methylpiperidin-3-yl]amino}-4-methylimidazo[4,5-c]pyrazol-2(4H)-yl]-3-methylphenol] | > 30000 nM | 49 nM | 
Cc1cc(C)c(-n2cc3sc(N[C@@H]4CN(C)C[C@H]4F)nc3n2)c(O)c1 [Example 79, 2-(5-{[(3R,4R)-4-fluoro-1-methylpyrrolidin-3-yl]amino}-2H-pyrazolo[3,4-d][1,3]thiazol-2-yl)-3,5-dimethylphenol] | > 30000 nM | 1100 nM | 
Cc1cc(C)c(-n2cc3sc(NC4CCCN(C)C4=O)nc3n2)c(O)c1 (stereo not shown) [Example 118, 3-{[2-(2-hydroxy-4,6-dimethylphenyl)-2H-pyrazolo[3,4-d][1,3]thiazol-5-yl]amino}-1-methylpiperidin-2-one] | > 30000 nM | 780 nM | 
Cc1cc(C)c(-n2cc3sc(N[C@H]4COC[C@@H]4F)nc3n2)c(O)c1 (racemic) [Example 121, racemic mixture of 2-(5-{[(3R,4S)-4-fluorooxolan-3-yl]amino}-2H-pyrazolo[3,4-d][1,3]thiazol-2-yl)-3,5-dimethylphenol and 2-(5-{[(3S,4R)-4-fluorooxolan-3-yl]amino}-2H-pyrazolo[3,4-d][1,3]thiazol-2-yl)-3,5-dimethylphenol] | > 10000 nM | 590 nM | 

Continued by falling IC50 (NLRP3 inflammasome), values first:

IC50 (NF-κB pathway; [1]) | IC50 (NLRP3 inflammasome) | IC50 (NF-κB pathway; THP-1 macrophages) | SMILES
> 10000 nM | 2000 nM |  | COC(=O)N1CC[C@H](Nc2nc3nn(-c4c(C)cc(C)cc4O)cc3s2)C1 [Example 156, methyl (3S)-3-{[2-(2-hydroxy-4,6-dimethylphenyl)-2H-pyrazolo[3,4-d][1,3]thiazol-5-yl]amino}pyrrolidine-1-carboxylate]
> 30000 nM | 1300 nM |  | Cc1cc(C)c(-n2cc3sc(NC4CC(=O)N(C)C4)nc3n2)c(O)c1 (stereo not shown) [Example 95, 4-{[2-(2-hydroxy-4,6-dimethylphenyl)-2H-pyrazolo[3,4-d][1,3]thiazol-5-yl]amino}-1-methylpyrrolidin-2-one]
> 30000 nM | 1300 nM |  | Cc1cc(C)c(-n2cc3sc(N[C@H]4CN(C)CC4(F)F)nc3n2)c(O)c1 [Example 160, 2-(5-{[(3S)-4,4-difluoro-1-methylpyrrolidin-3-yl]amino}-2H-pyrazolo[3,4-d][1,3]thiazol-2-yl)-3,5-dimethylphenol]
> 30000 nM | 1200 nM |  | Cc1cc(C)c(-n2cc3sc(NC4CCN(S(C)(=O)=O)CC4)nc3n2)c(O)c1 [Example 128, 2-(5-{[1-(methanesulfonyl)piperidin-4-yl]amino}-2H-pyrazolo[3,4-d][1,3]thiazol-2-yl)-3,5-dimethylphenol]
> 30000 nM | 1000 nM |  | Cc1cc(C)c(-n2cc3sc(NCC(O)c4ccccn4)nc3n2)c(O)c1 (stereo not shown) [Example 164, 2-(5-{[2-hydroxy-2-(pyridin-2-yl)ethyl]amino}-2H-pyrazolo[3,4-d][1,3]thiazol-2-yl)-3,5-dimethylphenol]
> 30000 nM | 460 nM |  | Cc1cc(C)c(-n2cc3sc(NC4CCN(C(=O)C5(F)CC5)C4)nc3n2)c(O)c1 (stereo not shown) [Example 98, (1-fluorocyclopropyl)(3-{[2-(2-hydroxy-4,6-dimethylphenyl)-2H-pyrazolo[3,4-d][1,3]thiazol-5-yl]amino}pyrrolidin-1-yl)methanone]
 | 430 nM | > 30000 nM | Cc1cc(C)c(-n2cc3sc(N[C@H]4COC[C@@H]4F)nc3n2)c(O)c1 (single isomer, unassigned) [Example 143, 2-(5-{[(3R,4S)-4-fluorooxolan-3-yl]amino}-2H-pyrazolo[3,4-d][1,3]thiazol-2-yl)-3,5-dimethylphenol or 2-(5-{[(3S,4R)-4-fluorooxolan-3-yl]amino}-2H-pyrazolo[3,4-d][1,3]thiazol-2-yl)-3,5-dimethylphenol (tR2)]
> 30000 nM | 390 nM |  | Cc1cc(C)c(-n2cc3sc(N[C@H]4CN(C(=O)C(C)(C)O)C[C@@H]4F)nc3n2)c(O)c1 (racemic) [Example 123, racemic mixture of 1-[(3R,4R)-3-fluoro-4-{[2-(2-hydroxy-4,6-dimethylphenyl)-2H-pyrazolo[3,4-d][1,3]thiazol-5-yl]amino}pyrrolidin-1-yl]-2-hydroxy-2-methylpropan-1-one and 1-[(3S,4S)-3-fluoro-4-{[2-(2-hydroxy-4,6-dimethylphenyl)-2H-pyrazolo[3,4-d][1,3]thiazol-5-yl]amino}pyrrolidin-1-yl]-2-hydroxy-2-methylpropan-1-one]
> 30000 nM | 350 nM |  | Cc1cc(C)c(-n2cc3sc(N[C@@H]4CCOC[C@H]4O)nc3n2)c(O)c1 [Example 167, 1,5-anhydro-2,3-dideoxy-3-{[2-(2-hydroxy-4,6-dimethylphenyl)-2H-pyrazolo[3,4-d][1,3]thiazol-5-yl]amino}-D-threo-pentitol]
> 10000 nM | 280 nM |  | Cc1cc(C)c(-n2cc3sc(NCC(C)(F)F)nc3n2)c(O)c1 [Example 139, 2-{5-[(2,2-difluoropropyl)amino]-2H-pyrazolo[3,4-d][1,3]thiazol-2-yl}-3,5-dimethylphenol]
> 30000 nM | 14 nM |  | Cc1cc(Cl)cc(O)c1-n1cc2sc(N[C@@H]3C[C@@H](F)CN(C)C3)nc2n1 [Example 9, 5-chloro-2-(5-{[(3R,5R)-5-fluoro-1-methylpiperidin-3-yl]amino}-2H-pyrazolo[3,4-d][1,3]thiazol-2-yl)-3-methylphenol]
